Values quoted from earlier work, collected in paper PMC9098912, “Molecular basis for inhibiting human glucose transporters by exofacial inhibitors” (Nature Communications, 2022).

Key:
[1] = test system: GLUT3; design: method as in PMID 12792024; details: cited from earlier work
[2] = test system: GLUT1/3 over GLUT2; design: method as in Siebeneicher et al., 2016; details: ref Siebeneicher et al., 2016; cited from earlier work
[3] = test system: GLUT1; design: method as in Siebeneicher et al., 2016; details: SAR of Bayer compounds; ref Siebeneicher et al., 2016; cited from earlier work

Compound	GLUT3 inhibition [1]	Selectivity [2]	GLUT1 potency [3]
C=CCCCCCCCCCO[C@H]1[C@H](O)[C@@H](CO)OC(O)[C@@H]1O (stereo partly drawn) [C3361]	weak inhibitor		
COc1ccc(F)cc1N1CCN(c2ncnc3c2cnn3-c2ccccc2)CC1 [cmpd 15]		selective inhibition to GLUT1/3 over GLUT2	favors GLUT1 association
